“Also recorded” adds a separate entry of the source. One block for each molecule: values may come before it.
Tests used:
Sprague Dawley rats [1] = assay: Spared nerve injury (SNI) model: mechanical (von Frey) and cold (acetone) allodynia; assay type: in vivo, rat
Procedure: (§1) Adult male Sprague Dawley rats (150-200 g, Charles River Laboratories) were used. For the SNI model two branches of the sciatic nerve, the common peroneal and the tibial nerve, were ligated and sectioned distally. For the CCI model the sciatic nerve was constricted with three Dexon 4/0 ligatures. For the SNL model, the L5 spinal nerve was tightly ligated. All surgical procedures were under isoflurane anesthesia. For the Formalin test 50 μl of 5% formaldehyde solution were injected into a hindpaw and flinches were counted per minute up to 60 min. Paw inflammation was induced with 50 μl complete Freund's adjuvant (CFA) injected into a hindpaw. Nociceptive analysis was done blinded, and animals were fully habituated to the room and test cages. Mechanical allodynia was assessed with graded strength monofilament von Frey hairs (0.0174-20.9 gram, log scaled), cold allodynia with the acetone test and heat hyperalgesia with the Hargreaves test. Drugs (Sigma) were injected intraperitoneally or intrathecally through a spinal catheter, osmotic pumps were used for infusion. Control animals received vehicle. L4/5 DRG and spinal cord tissue was processed for QRT-PCR, Western blotting, in situ hybridization and immunofluorescence studies.
(§2) Animals were fully habituated and experiments performed blinded. Threshold for eliciting a withdrawal reflex to graded strength monofilament von Frey hairs (0.0174-20.9 g) was measured to assess mechanical allodynia. To measure cold allodynia, a drop of acetone was applied to the plantar hindpaw, and the time the animal spent licking, shaking or lifting the paw was measured (Tegeder et al., J Neurosci 24:1637-1645 (2004)). Paw withdrawal latency to radiant heat (lamp with 8 V, 50 W) assessed heat evoked pain (Ugo Basile).
(§3) DAHP was dissolved in 1:1 polyethylene glycol (PEG400) and 1×PBS, pH 7.4 (15 mg/ml) and administered i.p. or intrathecally (250 μg/kg/h; 5 μl/h). For all i.t. injections/infusions a spinal catheter (Recathco) was used and implanted as described (Kunz et al., Pain 110:409-418 (2004)). Infusions with an osmotic pump (Alzet). 6R-BH4 in ACSF was injected i.t. (10 μg, single 10 μl injection). N-acetyl-serotonin in 1×PBS pH 7.4 containing 3% ethanol was delivered by i.t. infusion (100 μg/kg/h; 5 μl/h). Control animals received the appropriate vehicle. All drugs from Sigma-Aldrich.
Data are means ±SEM. The number of animals per group was 9-12. Areas under the “effect versus time” curves (AUC) were calculated using the linear trapezoidal rule and compared with Student's t-test or univariate analysis of variance (ANOVA) with subsequent t-tests employing a Bonferroni alpha-correction for multiple comparisons. All other data were analyzed with univariate ANOVA or ANOVA for repeated measurements. P at 0.05 for all tests.

Sprague Dawley rats [2] = assay: Chronic constriction injury (CCI) model: mechanical and cold allodynia; assay type: in vivo, rat; details: 180 mg/kg i.p.
Procedure: as §1, with “Nociceptive analysis was done blinded, and animals were fully habituated to the room and test cages.” left out, “Drugs (Sigma) were injected intraperitoneally or intrathecally through a spinal catheter, osmotic pumps were used for infusion. Control animals received vehicle. L4/5 DRG and spinal cord tissue was processed for QRT-PCR, Western blotting, in situ hybridization and immunofluorescence studies.” left out
as §2, with “Basile). […]” for “Basile).”

Sprague Dawley rats [3] = assay: Spinal nerve ligation (SNL) model: mechanical and cold allodynia; assay type: in vivo, rat; details: 180 mg/kg i.p.
Procedure: as §1, with “Nociceptive analysis was done blinded, and animals were fully habituated to the room and test cages.” left out, “Drugs (Sigma) were injected intraperitoneally or intrathecally through a spinal catheter, osmotic pumps were used for infusion. Control animals received vehicle. L4/5 DRG and spinal cord tissue was processed for QRT-PCR, Western blotting, in situ hybridization and immunofluorescence studies.” left out
as §2, with “Basile). […]” for “Basile).”

Sprague Dawley rats [4] = assay: CFA-induced paw inflammation: thermal hyperalgesia (Hargreaves); assay type: in vivo, rat
Procedure: as §1, with “Drugs (Sigma) were injected intraperitoneally or intrathecally through a spinal catheter, osmotic pumps were used for infusion. Control animals received vehicle. L4/5 DRG and spinal cord tissue was processed for QRT-PCR, Western blotting, in situ hybridization and immunofluorescence studies.” left out
(§4) For the Formalin test 50 μl of 5% formaldehyde solution were injected into one hindpaw and flinches were counted per minute up to 60 min. […]
as §2
Data are means ±SEM. […] Areas under the “effect versus time” curves (AUC) were calculated using the linear trapezoidal rule and compared with Student's t-test or univariate analysis of variance (ANOVA) with subsequent t-tests employing a Bonferroni alpha-correction for multiple comparisons. All other data were analyzed with univariate ANOVA or ANOVA for repeated measurements. […]

Sprague Dawley rats [5] = assay: Formalin test: flinching and cFos immunoreactive dorsal horn neurons; assay type: in vivo, rat
Procedure: as §1, §4

[6] = test system: BH4 synthesis (GTP cyclohydrolase activity); assay: Tissue concentrations of neopterin and biopterin in L4/5 DRGs (LC/MS-MS); assay type: in vivo, rat; details: single 180 mg/kg i.p. 3 hours before dissection, 180 mg/kg
Procedure: Homogenized tissue was oxidized with iodine, and pteridines were extracted on Oasis MCX cartridges. Concentrations of total biopterin, neopterin, and the internal standard rhamnopterin were determined by LC/MS-MS. LC analysis under gradient conditions on a Nucleosil C8 column; MS-MS analyses on an API 4000 Q TRAP triple quadrupole mass spectrometer. Precursor-to-product ion transitions of m/z 236→192 for biopterin, m/z 252→192 for neopterin, m/z 265→192 for rhamnopterin were used for the MRM. Linearity from 0.1-50 ng/ml. The coefficient of correlation for all measured sequences was at least 0.99. The intra-day and inter-day variability was <10%.

[7] = Plasma and CSF concentrations of DAHP (LC/MS-MS); assay type: in vivo, rat; details: after i.p. injection of 180 mg/kg; compared with IC50 range 100-300 μM
Procedure: Concentrations of DAHP were determined LC/MS-MS on a tandem quadrupole mass spectrometer (PE Sciex API 3000; Applied Biosystems). Extraction was by acetonitrile precipitation; chromatographic separation was performed on a Nucleosil C18 Nautilus column (125×4 mm I.D., 5 μm particle size, 100 Å pore size). Mobile phase was acetonitrile:water (80:20%, v/v), and formic acid (0.1%, v/v). Flow rate was 0.2 ml/min, and injection volume was 5 μl. DAHP eluted at 4.7 min. Mass spectrometer in positive ion mode, 5200 V, 400° C., auxiliary gas flow 6 l/min. The mass transition for the MRM was m/z 127→60. Quantification with Analyst software V1.1 (Applied Biosystems). Coefficient of variation over the calibration range of 10-4000 ng/ml <5%.

Sprague Dawley rats [8] = assay: Nociceptive thresholds in naïve animals (von Frey, radiant heat); assay type: in vivo, rat; details: naïve animals, 180 mg/kg i.p.; 180 mg/kg
Procedure: as §2, §3

Rats = assay: Forced Swim Test; assay type: in vivo, rat; details: 180 mg/kg i.p., 3 injections
Procedure: FIGS. 8A-8D show the effects of DAHP injection. […] DAHP (250 μg/kg/h) was delivered to the lumbar spinal cord via a chronically implanted spinal catheter connected to an osmotic Alzet pump. Infusion started right after SNI surgery and continued 14 days, flow rate 5 μl/h (n=8, p<0.05). […] Effect versus time AUCs were used for statistical comparisons. […] Rats (n=7 per condition) received 3 separate injections of DAHP (180 mg/kg, i.p.), at 1 hr, 19 hrs, and 23 hrs after the first exposure to forced swimming. This commonly used treatment regimen identifies in rats agents with antidepressant or pro-depressant effects in humans (Mague et al., J Pharmacol Exp Ther 305:323-330 (2003)). Retest sessions (forced swim for 300 sec) occurred 24 hr after the first swim exposure and were videotaped from the side of the water cylinders and scored by raters unaware of the treatment condition. Rats were rated at 5 sec intervals throughout the duration of the retest session; at each 5 sec interval the predominant behavior was assigned to one of four categories: immobility, swimming, climbing, or diving. The sum of these scores are shown for each modality. For all panels, error SEM.

nitric oxide production = assay: Nitric oxide production in L4/5 DRGs after SNI; assay type: in vivo, rat; details: 7 d after SNI, once daily treatment
serotonin = assay: Serotonin concentrations in spinal cord and brain stem; assay type: in vivo, rat; details: data not shown
[9] = Observation of general well-being, body weight, gait, activity; assay type: in vivo, rat; details: acute single or daily treatment, 180 mg/kg i.p.; 180 mg/kg
GTP cyclohydrolase = details: determined in vitro (Kolinsky and Gross 2004; Xie et al. 1998); read-out: IC50 range for GTP cyclohydrolase inhibition; cited from earlier work
GCH1 = assay: LPS induction of GCH1 in cells of haplotype carriers and non-carriers; assay type: cell-based, human; details: cells of individuals with versus without the pain protective haplotype
[10] = repeated daily injections, measured two-three hours after injection

plasma and CSF concentrations [7]: within the IC50 range | performance in the forced swim test (Rats): had no effect
Molecule: Nc1cc(O)nc(N)n1 [DAHP, 2,4-diamino-6-hydroxypyrimidine]
mechanical and cold pain hypersensitivity, established (Sprague Dawley rats [1]; 180 mg/kg/d i.p. starting 17 days after nerve injury): produced a significant reduction of mechanical and cold pain hypersensitivity; also recorded: decreases pain hypersensitivity | relative efficacy, extent of return to pre-surgery baseline values (Sprague Dawley rats [1]; SNI model, versus comparators measured earlier (Decosterd et al. 2004)): exceeds that of non-sedating doses of morphine, gabapentin, amitriptyline, and carbamazepine | analgesia on repeated daily administration (Sprague Dawley rats [1]; SNI, repeated daily administration): continues to produce analgesia without obvious loss of activity | dose dependence of effect on mechanical and cold allodynia (Sprague Dawley rats [1]; SNI, repeated daily i.p. injections): dose dependent efficacy; also recorded: dose-dependent reductions in mechanical and cold allodynia | mechanical and cold allodynia (Sprague Dawley rats [1]; continuous intrathecal infusion 250 μg/kg/h, 14 days from SNI surgery): reduces mechanical and cold allodynia | linear relationship between dose and effect (R), cold allodynia (Sprague Dawley rats [1]; [10]): 0.754 | linear relationship between dose and effect (R), mechanical allodynia (Sprague Dawley rats [1]; [10]): 0.709 | time to reversal of mechanical and cold pain hypersensitivity (Sprague Dawley rats [1]; single dose 180 mg/kg i.p. four days after SNI): ≤ 60 min | mechanical (von Frey) and cold allodynia (Sprague Dawley rats [1]; single dose 180 mg/kg i.p. four days after SNI, 180 mg/kg): significantly reduced mechanical (von Frey) and cold allodynia; also recorded: reverses mechanical and cold pain hypersensitivity | mechanical and cold allodynia (Sprague Dawley rats [2]): analgesic effects; also recorded: dose-dependent reductions in mechanical and cold allodynia | mechanical and cold allodynia (Sprague Dawley rats [3]): analgesic effects; also recorded: dose-dependent reductions in mechanical and cold allodynia | thermal hyperalgesia (Sprague Dawley rats [4]; 180 mg/kg i.p., before CFA and 24 hours after CFA): significantly reduced thermal hyperalgesia; also recorded: reduce CFA-evoked heat hyperalgesia | thermal hyperalgesia (Sprague Dawley rats [4]; single intrathecal injection of 1 mg/kg, 1 mg/kg): reduced thermal hyperalgesia | formalin-induced flinching behavior (Sprague Dawley rats [5]; 180 mg/kg i.p. before formalin, first and second phases): significantly reduced formalin-induced flinching behavior in both phases; also recorded: significantly reduces the flinching behavior in the first and second phases | number of cFos immunoreactive neurons in ipsilateral dorsal horn (Sprague Dawley rats [5]; 180 mg/kg i.p., two hours after formalin injection): reduced number of cFOS immunoreactive neurons; also recorded: significant reduction in the number of cFos immunoreactive neurons | biopterin levels in ipsilateral L4/5 DRGs ([6]; 24 h after CFA): reduced neopterin and biopterin; also recorded: significantly reduces elevated biopterin levels | neopterin levels in ipsilateral L4/5 DRGs ([6]; 24 h after CFA): reduced neopterin and biopterin; also recorded: completely prevents the inflammation-evoked increase of neopterin | biopterin levels in L4/5 DRGs ([6]; 7 days after SNI): reduced neopterin and biopterin; also recorded: significantly reduces biopterin levels | neopterin levels in L4/5 DRGs ([6]; 7 days after SNI): reduced neopterin and biopterin; also recorded: completely prevents the nerve injury induced increases in neopterin | mechanical threshold and radiant heat paw withdrawal latency (Sprague Dawley rats [8]): failed to modify mechanical and thermal threshold; also recorded: did not change the mechanical threshold for paw withdrawal or radiant heat evoked paw withdrawal latency | nitric oxide levels in L4/5 DRGs (nitric oxide production): normalization of NO levels; also recorded: prevented by DAHP treatment | serotonin concentrations in spinal cord and brain stem (serotonin): did not, however, significantly reduce serotonin concentrations | general well-being, body weight, gait, activity [9]: No deleterious effect; also recorded: had no effect | IC50 (GTP cyclohydrolase): 100 to 300 µM

Molecule: lipopolysaccharide [LPS]
GCH1 induction (GCH1): induced GCH1 to a lesser extent

Source: patent US20070254288A1, “Diagnostic methods for pain sensitivity and chronicity and for tetrahydrobiopterin-related disorders” (The General Hospital Corporation, priority 2005, published 2007)
